Reference: ChEMBL document CHEMBL1201862, “PubChem BioAssay data set” (2004)
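Method: 48-hour compound exposure of cells in 96-well plates, five concentrations, linear interpolation of endpoints. GI50 marks 50% less growth.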 Calls of active or inactive are those of the source. No stated cut-off is given here; in the data, active = GI50 up to about 1.1 µM and inactive = higher.

What was measured:
Experiment in all cases: DTP human tumour cell line panel, 48 h
RPMI-8226 = system: RPMI-8226
SNB-19 = system: SNB-19
SW-620 = system: SW-620
UACC-62 = system: UACC-62
IGROV-1 = system: IGROV-1
RXF 393 = system: RXF 393
SN12C = system: SN12C
OVCAR-8 = system: OVCAR-8
CAKI-1 = system: CAKI-1
SK-MEL-28 = system: SK-MEL-28
LOX IMVI = system: LOX IMVI
MDA-N = system: MDA-N
NCI-H460 = system: NCI-H460
HCT-15 = system: HCT-15
NCI-H522 = system: NCI-H522
MDA-MB-435 = system: MDA-MB-435
SK-MEL-2 = system: SK-MEL-2
Hs-578T = system: Hs-578T
PC-3 = system: PC-3
BT-549 = system: BT-549
HL-60 = system: HL-60
UACC-257 = system: UACC-257
HCC 2998 = system: HCC 2998
HOP-92 = system: HOP-92
SF-268 = system: SF-268
SK-MEL-5 = system: SK-MEL-5
SF-539 = system: SF-539
TK-10 = system: TK-10
Malme-3M = system: Malme-3M
KM12 = system: KM12
NCI-H23 = system: NCI-H23
CCRF-CEM = system: CCRF-CEM
OVCAR-3 = system: OVCAR-3
T47D = system: T47D
A549 = system: A549
SK-OV-3 = system: SK-OV-3
DU-145 = system: DU-145
SR = system: SR
SNB-75 = system: SNB-75
NCI-H226 = system: NCI-H226
SF-295 = system: SF-295
OVCAR-5 = system: OVCAR-5
HCT-116 = system: HCT-116
A498 = system: A498
COLO 205 = system: COLO 205
HT-29 = system: HT-29
UO-31 = system: UO-31
EKVX = system: EKVX
MDA-MB-231 = system: MDA-MB-231
U-251 = system: U-251
HOP-62 = system: HOP-62
ACHN = system: ACHN
OVCAR-4 = system: OVCAR-4
NCI/ADR-RES = system: NCI/ADR-RES
MCF7 = system: MCF7
K562 = system: K562
M14 = system: M14
786-0 = system: 786-0
M19-MEL = system: M19-MEL
DMS-273 = system: DMS-273
SNB-78 = system: SNB-78
KM-20L2 = system: KM-20L2
DMS-114 = system: DMS-114
LXFL 529 = system: LXFL 529
DLD-1 = system: DLD-1

For `CC1=C[C@@H](C)C[C@]2(C)CC[C@H](O2)[C@]23CC[C@](CO)(C[C@H](O2)[C@@H]2O[C@@](C)(CC2=O)[C@@H](O)[C@H]2CC[C@@]4(CCC[C@@H](O4)[C@H](C)C(=O)O[C@H]4C[C@H]([C@]5(O)OCC[C@H](C)[C@@H]5O)O[C@H]4C=C1)O2)O3`, the GI50 (RPMI-8226) was > 10000 nM (inactive), the GI50 (SNB-19) was 19.7 nM (active) and the GI50 (SW-620) was 214 nM (active). The GI50 (UACC-62) was 3.25 nM (active), the GI50 (IGROV-1) was 3.73 nM (active) and the GI50 (RXF 393) was 11.8 nM (active). The GI50 (SN12C) was 21.2 nM (active), the GI50 (OVCAR-8) was 56.2 nM (active) and the GI50 (CAKI-1) was 7.24 nM (active). For the same molecule, the GI50 (SK-MEL-28) was 12.4 nM (active), the GI50 (LOX IMVI) was 1 nM (active) and the GI50 (MDA-N) was 95.1 nM (active). The GI50 (NCI-H460) was 33.3 nM (active), the GI50 (HCT-15) was 150 nM and the GI50 (NCI-H522) was 116 nM (active). For the same molecule, the GI50 (MDA-MB-435) was 24.9 nM (active), the GI50 (SK-MEL-2) was 51.3 nM (active) and the GI50 (Hs-578T) was 1.63 nM (active). The GI50 (PC-3) was 13.7 nM (active), the GI50 (BT-549) was 12.7 nM (active) and the GI50 (HL-60) was 80.9 nM (active). For the same molecule, the GI50 (UACC-257) was 142 nM (active), the GI50 (HCC 2998) was 90.6 nM (active) and the GI50 (HOP-92) was 1.63 nM (active). For the same molecule, the GI50 (SF-268) was 2.79 nM (active), the GI50 (SK-MEL-5) was 14.2 nM (active) and the GI50 (SF-539) was 2.72 nM (active). The GI50 (TK-10) was 17.9 nM (active), the GI50 (Malme-3M) was 8.73 nM (active) and the GI50 (KM12) was 757 nM (active). The GI50 (NCI-H23) was 93.5 nM (active), the GI50 (CCRF-CEM) was 4.71 nM (active) and the GI50 (OVCAR-3) was 17.1 nM (active). For the same molecule, the GI50 (T47D) was 427 nM (active), the GI50 (A549) was 29.4 nM (active) and the GI50 (SK-OV-3) was 17.7 nM (active). For the same molecule, the GI50 (DU-145) was 247 nM (active), the GI50 (SR) was 13.9 nM (active) and the GI50 (SNB-75) was 1 nM (active). The GI50 (NCI-H226) was 3.86 nM (active), the GI50 (SF-295) was 3.41 nM (active) and the GI50 (OVCAR-5) was 31.6 nM (active). For the same molecule, the GI50 (HCT-116) was 22.2 nM (active), the GI50 (A498) was 2.29 nM (active) and the GI50 (COLO 205) was 1.92 nM (active). For the same molecule, the GI50 (HT-29) was 16.6 nM (active), the GI50 (UO-31) was 43.5 nM (active) and the GI50 (EKVX) was 13 nM (active). The GI50 (MDA-MB-231) was 22.5 nM (active), the GI50 (U-251) was 22 nM (active) and the GI50 (HOP-62) was 3.45 nM (active). The GI50 (ACHN) was 24.9 nM (active), the GI50 (OVCAR-4) was 17.9 nM (active) and the GI50 (NCI/ADR-RES) was > 5180 nM (inactive). The GI50 (MCF7) was > 10000 nM (inactive), the GI50 (K562) was 18.3 nM (active) and the GI50 (M14) was 25.8 nM (active). For the same molecule, the GI50 (786-0) was 8.43 nM (active).
With `CCOc1ccccc1N1C(=O)C(=O)C(c2nc3ccccc3o2)/C(=N\N)C1=O` (stereo unspecified) the GI50 (RPMI-8226) was > 100000 nM (inactive), the GI50 (SNB-19) was > 100000 nM (inactive) and the GI50 (SW-620) was > 100000 nM (inactive). The GI50 (M19-MEL) was > 100000 nM (inactive), the GI50 (UACC-62) was > 100000 nM (inactive) and the GI50 (IGROV-1) was > 100000 nM (inactive). For the same molecule, the GI50 (RXF 393) was > 100000 nM (inactive), the GI50 (SN12C) was > 100000 nM (inactive) and the GI50 (DMS-273) was > 100000 nM (inactive). For the same molecule, the GI50 (OVCAR-8) was > 100000 nM (inactive), the GI50 (CAKI-1) was > 100000 nM (inactive) and the GI50 (SK-MEL-28) was > 100000 nM (inactive). The GI50 (SNB-78) was > 100000 nM (inactive), the GI50 (LOX IMVI) was > 100000 nM (inactive) and the GI50 (HCT-15) was > 100000 nM. For the same molecule, the GI50 (NCI-H522) was > 100000 nM (inactive), the GI50 (SK-MEL-2) was > 100000 nM (inactive) and the GI50 (KM-20L2) was > 100000 nM (inactive). The GI50 (HL-60) was > 100000 nM (inactive), the GI50 (UACC-257) was 49900 nM (inactive) and the GI50 (HCC 2998) was > 100000 nM (inactive). The GI50 (HOP-92) was > 100000 nM (inactive), the GI50 (SF-268) was 55000 nM (inactive) and the GI50 (SK-MEL-5) was > 100000 nM (inactive). For the same molecule, the GI50 (SF-539) was > 100000 nM (inactive), the GI50 (DMS-114) was > 100000 nM (inactive) and the GI50 (TK-10) was 56500 nM (inactive). The GI50 (Malme-3M) was > 100000 nM (inactive), the GI50 (KM12) was > 100000 nM (inactive) and the GI50 (NCI-H23) was > 100000 nM (inactive). The GI50 (CCRF-CEM) was > 100000 nM (inactive), the GI50 (OVCAR-3) was > 100000 nM (inactive) and the GI50 (A549) was > 100000 nM (inactive). The GI50 (LXFL 529) was > 100000 nM (inactive), the GI50 (SK-OV-3) was > 100000 nM (inactive) and the GI50 (SNB-75) was 27700 nM (inactive). The GI50 (NCI-H226) was > 100000 nM (inactive), the GI50 (SF-295) was > 100000 nM (inactive) and the GI50 (OVCAR-5) was > 100000 nM (inactive). For the same molecule, the GI50 (HCT-116) was 79800 nM (inactive), the GI50 (A498) was > 100000 nM (inactive) and the GI50 (COLO 205) was > 100000 nM (inactive). The GI50 (HT-29) was 70500 nM (inactive), the GI50 (UO-31) was 31200 nM (inactive) and the GI50 (DLD-1) was > 100000 nM (inactive). For the same molecule, the GI50 (EKVX) was > 100000 nM (inactive), the GI50 (U-251) was > 100000 nM (inactive) and the GI50 (HOP-62) was > 100000 nM (inactive). The GI50 (ACHN) was 88100 nM (inactive), the GI50 (OVCAR-4) was 27100 nM (inactive) and the GI50 (K562) was > 100000 nM (inactive). The GI50 (M14) was > 100000 nM (inactive) and the GI50 (786-0) was > 100000 nM (inactive).
